This assay has as its target T1, PD-1/PD-L1 protein/protein interaction (Homo sapiens, UniProt Q9NZQ7).
T1 construct: Recombinant human PD-L1 protein (19-238) with a His-tag at the C-terminus; purchased AcroBiosystems PD1-H5229 (PD-L1); PD1-H5257 (PD-1)
Kind of assay: PD-1/PD-L1 Homogeneous Time-Resolved Fluorescence (HTRF) binding assay. To be noted: recombinant human PD-1 (25-167) Fc tag and PD-L1 (19-238) His-tag, 25° C., PBS pH 7.4. How it is done: Example A. PD-1/PD-L1 Homogeneous Time-Resolved Fluorescence (HTRF) Binding Assay The assays were conducted in a standard black 384-well polystyrene plate with a final volume of 20 μL. Inhibitors were first serially diluted in DMSO and then added to the plate wells before the addition of other reaction components. The final concentration of DMSO in the assay was 1%. The assays were carried out at 25° C. in the PBS buffer (pH 7.4) with 0.05% Tween-20 and 0.1% BSA. Recombinant human PD-L1 protein (19-238) with a His-tag at the C-terminus was purchased from AcroBiosystems (PD1-H5229). Recombinant human PD-1 protein (25-167) with Fc tag at the C-terminus was also purchased from AcroBiosystems (PD1-H5257). PD-L1 and PD-1 proteins were diluted in the assay buffer and 10 μL was added to the plate well. Plates were centrifuged and proteins were preincubated with inhibitors for 40 minutes. The incubation was followed by the addition of 10 μL of HTRF detection buffer supplemented with Europium cryptate-labeled anti-human IgG (PerkinElmer-AD0212) specific for Fc and anti-His antibody conjugated to SureLight®-Allophycocyanin (APC, PerkinElmer-AD0059H). After centrifugation, the plate was incubated at 25° C. for 60 min. before reading on a PHERAstar FS plate reader (665 nm/620 nm ratio). […]
For orientation: In TR-FRET formats the signal depends on donor and acceptor labels being close together.

Our source for the IC50 values is patent US12084443B2, “Process of preparing a PD-1/PD-L1 inhibitor” (Incyte Corporation, priority 2020, dated 2024).

A word on the IC50: it is the midpoint of a concentration-inhibition curve.

T1 sequence (Q9NZQ7 19-238): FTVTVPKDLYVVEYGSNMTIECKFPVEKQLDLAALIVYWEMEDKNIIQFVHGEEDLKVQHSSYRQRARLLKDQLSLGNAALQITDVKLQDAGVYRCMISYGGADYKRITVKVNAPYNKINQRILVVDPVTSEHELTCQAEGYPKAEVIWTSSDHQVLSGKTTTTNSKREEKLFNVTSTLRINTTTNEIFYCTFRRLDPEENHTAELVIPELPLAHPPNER

For the compound `Cc1c(Nc2nccc3cc(CN4CC[C@@H](O)C4)cnc23)cccc1-c1cccc(-c2nc3cc(CN4CC[C@@H](C(=O)O)C4)cc(C#N)c3o2)c1C` [Compound 1, (R)-1-((7-cyano-2-(3′-((3-(((R)-3-hydroxypyrrolidin-1-yl)methyl)-1,7-naphthyridin-8-yl)amino)-2,2′-dimethyl-[1,1′-biphenyl]-3-yl)benzo[d]oxazol-5-yl)methyl)pyrrolidine-3-carboxylic acid], the IC50 is at most 10 nM.
